ChEMBL document CHEMBL3507680, “University of Dundee, Gates Library screen for HepG2 cell viability”

test: Human HepG2 cell viability assay in 384 well format; format: toxicity, cell-based; design: dose 125 nL, time 70.5 hour; concentration not given beside the values; settings: HepG2 cells, read-out: Inhibition

SMILES | cytotoxicity at 70.5 h
O=C(NC1=NCCCN1c1ccc(Cl)cc1)c1cccc(Cl)c1 | 9.24%
CCOc1ccc(N2CCCN=C2NC(=O)c2ccccc2C)cc1 | -12.8%
Cc1cc(C)nc(NC(=O)C(C)Oc2ccc3c(c2)OCO3)n1 (stereo unspecified) | -11.4%
CSCc1cccc(S(=O)(=O)NCCCO)c1 | -6.9%
CSCc1cccc(S(=O)(=O)NCCCN2CCOCC2)c1 | -6.88%
CCN1CCN(S(=O)(=O)c2cc(C)c(Cl)cc2Cl)CC1 | 10.1%
CCC(C)c1noc(C2CCN(C(=O)c3cccs3)CC2)n1 (stereo unspecified) | -10.7%
CCn1cc(Br)c(C(=O)NCc2cccnc2)n1 | -7.68%
CC1CCN(c2ncc3c(n2)CN(c2ccc4c(c2)OCO4)C3=O)CC1 | -6.45%
Cc1nc(C2CCCN2C(=O)CCc2ccc(F)cc2)ncc1C(N)=O (stereo unspecified) | -10.3%
Cc1cccc(C)c1NC(=O)c1n[nH]c(-n2cnnc2)n1 | -13.4%
Cc1cc(N(C)C)nc(C2(C)CCCN2C(=O)c2cncnc2C)n1 (stereo unspecified) | -10.8%
CNCC(=O)N1CCCCC1c1nccc(C)n1 (stereo unspecified) | 16.2%
CC(=O)N1CCCC(c2ccc(C(=O)NC3CCCC3)cn2)C1 (stereo unspecified) | -5.66%
CC1CCN(C(=O)c2cnc(CC3CCCN(C)C3)cn2)CC1 (stereo unspecified) | -9.3%
CNc1cc(C2CCCN2Cc2ccc(OCC(=O)O)cc2)ccn1 (stereo unspecified) | -5.44%
c1cncc(CN2CCCC(c3nnc(-c4cnccn4)o3)C2)c1 (stereo unspecified) | -14%
c1cc(CN2CCCC(c3nnc(-c4cnccn4)o3)C2)ccn1 (stereo unspecified) | -8.48%
c1cc(-c2nnc(C3CCCN(CC4CCCCC4)C3)o2)ccn1 (stereo unspecified) | -5.12%
CC(=O)N1CCC(c2ccnc(Nc3ccc(C)cn3)n2)C1 (stereo unspecified) | 16%
O=C(Cc1ccccc1)N1CCOC(c2nc(-c3ncccn3)no2)C1 (stereo unspecified) | -4.21%
CCCC(=O)N1CCC(c2nc(O)c3c(n2)CCN(C2CCCC2)C3)C1 (stereo unspecified) | -0.72%
CC(=O)NCC(=O)N1CCC(c2cncc(Oc3cccnc3)n2)CC1 | -9.15%
Cc1noc(C)c1C(=O)N1CCCC(c2c(C)c(=O)nc3n2CCC3)C1 (stereo unspecified) | -9.85%

SMILES | cytotoxicity at 70.5 h
Cc1nc(CCC(=O)NC2CCC2)cc(C2CCCNC2)n1 (stereo unspecified) | -9.96%
CN(C)C(=O)C1CN(Cc2cccs2)CCN(S(C)(=O)=O)C1 (stereo unspecified) | -5.12%
CN(Cc1ccc(F)cc1)CC1(O)CCN(C(=O)c2ccsc2)C1 (stereo unspecified) | 9.08%
Cc1nn(C)cc1C(=O)N1CCCC(n2nnc3cc(F)ccc32)C1 (stereo unspecified) | 11.8%
Cc1cc(-c2cnc(NCc3ccccn3)nc2C(C)C)on1 | -11.7%
COc1ccc(CNc2ncc(-c3cc(C)no3)c(C(C)C)n2)cc1 | -4.08%
Cc1nn(C)cc1CN1CCc2c(nc(-c3ccccn3)[nH]c2=O)C1 | -5.77%
O=C(c1cncs1)N1CCC(c2cnccn2)CC1 | -8.41%
CC(=O)N1CCC(Cc2nccnc2-c2c(C)n[nH]c2C)C1 (stereo unspecified) | -8.33%
CC(C)N1CCC(c2nccnc2Nc2ncccn2)CC1 | -4.91%
CC(=O)N1CCN(CC(N)=O)CC(COc2ccccc2)C1 (stereo unspecified) | 6.55%
COCC(=O)N1CCCC1c1cccc(Cc2ccccc2F)n1 (stereo unspecified) | -1.54%
CS(=O)(=O)N1CCCC(Cc2ccnc3ccncc23)CC1 (stereo unspecified) | -0.73%
CC(C)CC(=O)N1CCN(Cc2cc(-c3ccncc3)nn2C)CC1 | -3.33%
COCC(=O)N1CCN(Cc2cc(-c3ccncc3)nn2C)CC1 | -3.57%
CCS(=O)(=O)N1CCc2nc(C3CCN(C(=O)C4CC4)C3)nc(O)c2C1 (stereo unspecified) | -1.94%
COc1ccc(-c2cccc(CC3(C(=O)O)CCOCC3)c2)cc1 | -4.34%
O=C(NCCN1CCOCC1)Nc1cnc2cc(Cl)ccc2c1O | 12.7%
Cc1c(C2CCCN(C(=O)OC(C)(C)C)C2)n2c(nc1=O)CCC2 (stereo unspecified) | -5.64%
O=C(NCCCO)Nc1cnc2cc(Cl)ccc2c1O | -1.44%
O=C(C1CC1)N1CCCC(c2nc(O)cc(-c3ccncc3)n2)C1 (stereo unspecified) | -0.584%
COc1ccccc1CN1CCC(O)(Cn2ccc3ncccc32)CC1 | -2.09%
O=c1[nH]c(N2CCOCC2)nc2c1CN(Cc1cccnc1)CC2 | 0.495%
O=C(CC1CCCCC1)NC1CCCc2nc(N3CCOCC3)ncc21 (stereo unspecified) | 0.0844%

SMILES | cytotoxicity at 70.5 h
Cc1ccc(=O)n(CC2(O)CCN(Cc3cnn(C)c3)CC2)n1 | -3.09%
Cc1ccc(=O)n(CC2(O)CCN(Cc3c(F)cccc3F)CC2)n1 | 0.803%
O=C(NC1CCCc2nc(N3CCOCC3)ncc21)C1CCCC1 (stereo unspecified) | -4.32%
O=C(Cc1ccsc1)N1CCCC(c2cc(C(F)F)n3ncnc3n2)C1 (stereo unspecified) | 14.6%
O=C(O)C1(Cc2cc(-c3ccccc3F)no2)CCOCC1 | -10.6%
CC(C)N1CCC(Cc2cncc(-c3ccccc3C(=O)O)n2)C1 (stereo unspecified) | -4.44%
CC(=O)N1CCc2ccccc2C1CC(=O)NCc1nnc(C)o1 (stereo unspecified) | 27.7%
Cc1cc(C(=O)NCCSC2CCCC2)no1 | -1.92%
CCCc1cc(C(=O)N2CCCN(c3cccnn3)CC2)[nH]n1 | -0.666%
CC(C)Cc1cc(C(=O)N2CCCN(c3cccnn3)CC2)[nH]n1 | -5.32%
CC1CN(C(=O)c2ccc(C(N)=O)cc2)c2ccc(F)cc2O1 (stereo unspecified) | 2.67%
Cc1nccn1-c1ccc(CNS(=O)(=O)N2CCCCC2C)cn1 (stereo unspecified) | -3.35%
CC(C)(NS(C)(=O)=O)C(=O)NCCc1csc2ccccc12 | 4.98%
COc1cccc(CC(C)NC(=O)NC(C)C)c1 (stereo unspecified) | -2.35%
CCOC(=O)CCNC(=O)c1cccc2ccc(C)nc12 | 0.845%
COc1ccc(C2CCCN2c2ccnc(C)c2Cl)c(OC)c1 (stereo unspecified) | 33.7%
COC(=O)c1ccc(NC(=O)NC2CCc3[nH]ncc3C2)cc1 (stereo unspecified) | 1.54%
O=C(Nc1ccc(-c2csnn2)cc1)N1CCCC1 | -11.8%
COc1cccc(CC(C)NC(=O)NCCNC(C)=O)c1 (stereo unspecified) | -1.81%
CCC1COCCN1C(=O)CNC(=O)c1ccc2c(c1)CCC2 (stereo unspecified) | 37.1%
Cc1cccc2nc(CN3CCCC(Cn4ccnn4)C3)cc(=O)n12 (stereo unspecified) | 2.5%
COc1cccc(CC(=O)NCCc2nnc3n2CCCCC3)c1 | 18.7%
CNC(=O)C1CCCCN1C(=O)c1csc(-c2ccc(C)o2)n1 (stereo unspecified) | -6.71%
NC(=O)C(NCc1ccc(Cl)s1)c1ccccc1 (stereo unspecified) | -7.49%

SMILES | cytotoxicity at 70.5 h
CCC(C)NC(=O)CS(=O)(=O)Cc1cc(Cl)ccc1OC (stereo unspecified) | -12%
CCN(Cc1ccco1)C(=O)C1=NN(c2ccccc2)C(=O)CN1 | 17.6%
CNC(=O)C1CCCCN1C(=O)Cc1csc(-c2ccc(C)o2)n1 (stereo unspecified) | -11.8%
Cc1noc(C)c1CN(C)C(=O)C1CCN(S(N)(=O)=O)CC1 | -1.71%
Cc1noc(C)c1CN(C)C(=O)C1CCCCN1S(C)(=O)=O (stereo unspecified) | 13.6%
CC(C)(C)n1ncc(C(=O)NCCCC(N)=O)c1C(F)(F)F | -9.38%
N#CCCN(CC1CC1)S(=O)(=O)c1cccc(Cl)c1 | -3.31%
O=C(CCNC(=O)C1=Cc2ccccc2OC1)Nc1cccnc1 | -6.01%
N#CCCN(CC1CCOC1)S(=O)(=O)c1cccc(Cl)c1 (stereo unspecified) | -5.98%
Cc1noc(C)c1NC(=O)CCn1cc(Br)ccc1=O | -8.23%
Cc1ccc(F)c2c1N(C(=O)Cc1c(C)nn(C)c1C)CCC2 | -8.9%
COc1nc(N2CCC(CC(N)=O)CC2)ncc1Br | -8.58%
COc1ccc(CCNc2cc(-c3nc(C)no3)ccn2)cc1OC | -3.44%
CNC(=O)Cc1noc(-c2cc3c(s2)CCC(C)C3)n1 (stereo unspecified) | -3.99%
CC1CCC(N2CCC(NS(=O)(=O)CCCF)CC2)CC1 (stereo unspecified) | 7.59%
CNC(=O)Cc1noc(-c2cc3c(s2)CCC(C)(C)C3)n1 | -3.09%
CC(C)CCC(=O)N1CCN(c2ncnc3nc(N)ccc23)CC1 | -6.9%
Cc1ccc(C(=O)N2CCN(c3ncnc4nc(N)ccc34)CC2)o1 | -7.65%
CC(C)CCN1CCN(c2ncnc3nc(N)ccc23)CC1 | -2.35%
Cc1noc(C)c1NC(=O)Cn1cc(Br)ccc1=O | 0.532%
Cc1ccc(C(=O)N2CCN(c3ncnc4nc(N)ccc34)CC2)cc1 | 20.2%
CC(C)OCCC1CCCCN1S(=O)(=O)c1cnn(C)c1 (stereo unspecified) | -4.85%
CC(C)N(C)CCCNC(=O)c1cnn(C(C)(C)C)c1C(F)(F)F | -7.79%
Cc1ccc(F)c2c1CCCN2C(=O)Cc1c(C)nn(C)c1C | -5.29%

SMILES | cytotoxicity at 70.5 h
COc1cccc(COC(C)C(=O)NCc2nnc3n2CCC3)c1 (stereo unspecified) | -1.81%
N#CCCN(CC1CCOC1)S(=O)(=O)c1c(F)cccc1Cl (stereo unspecified) | -6.61%
CC(C)Cc1noc(CNc2cc3c(cc2Cl)OCCCO3)n1 | 1.94%
Cc1ncc(CN2CCC(c3ccnn3C)CC2)n1-c1ccccc1 | 2.82%
CC1CCCN(S(=O)(=O)NCCCn2ccc3ccccc32)C1 (stereo unspecified) | -9.54%
Cn1nccc1C1CCN(Cc2cnn(-c3ccccc3)n2)CC1 | 20.8%
Cc1noc(C)c1CN1CCN(Cc2nc(C3CC3)no2)CC1 | -12.8%
Cn1nccc1C1CCN(Cc2ccn(-c3ccccc3)n2)CC1 | -5.5%
Cc1nc(C2(O)CCCNCC2)sc1CCOc1ccccc1Cl (stereo unspecified) | 1.01%
Cc1nc(C2(O)CCCNCC2)sc1CCOc1ccccc1 (stereo unspecified) | -9.24%
Cc1nc(C2(O)CCCNCC2)sc1CCOc1ccc(F)cc1 (stereo unspecified) | 16.3%
Cc1ccc(Cc2cnc(C3CCNCC3)cn2)cc1 | -12.9%
CC(C)CC(=O)NCCn1nc(C2CCNC2)c2cccnc21 (stereo unspecified) | -2.13%
COCCC(=O)NCCn1nc(C2CCNC2)c2cccnc21 (stereo unspecified) | 14.1%
Cc1ccc2c(c1)CN(C(=O)c1ccncc1)C(CN(C)C)CO2 (stereo unspecified) | -0.528%
Cc1ccc(CN2CCC(O)(Cn3ccc4ncccc43)CC2)o1 | -0.742%
OC1(Cn2ccc3ncccc32)CCN(Cc2ccccc2F)CC1 | 2.31%
COc1ccc(C(=O)N2Cc3cc(C)ccc3OCC2CN(C)C)cc1 (stereo unspecified) | 3.28%
CCn1cncc1CN(Cc1ccc(OC)cc1OC)CC1CCCO1 (stereo unspecified) | -3.49%
Cc1cccnc1[C@]1(O)CC[C@H]2CN(Cc3cccc(Cl)c3Cl)C[C@H]21 | -3.29%
